Where a name gives a salt, the structure may show the parent alone. Read-outs that look alike come from different tables or passages of the source.
Experiments:
[1] = biological target: T1, SARS-CoV-2 PLpro (nsp3 1564–1878) (Severe acute respiratory syndrome coronavirus 2, UniProt P0DTD1); assay: biochemical; parameters: FRET-quenched peptide (Pro3) cleavage by PLpro, 10 min pre-incubation, slope over 20 min, normalised to no-compound control; conditions: low concentration screen, read-out: % of control remaining
[2] = biological target: T1, SARS-CoV-2 PLpro (nsp3 1564–1878); assay: biochemical; parameters: FRET-quenched peptide (Pro3) cleavage by PLpro, 10 min pre-incubation, slope over 20 min, normalised to no-compound control; conditions: high concentration screen, read-out: % of control remaining

## O=C(Nc1ccc(Cl)cc1CN1C(=O)c2ccccc2C1=O)c1ccccc1O [CPPHA]
[1]; Well no.=7243
  remaining activity at 1.25 µM: 101%
[2]; Well no.=7243
  remaining activity at 3.75 µM: 97.3%

## CC[C@@H](CO)Nc1nc(NCc2ccc(-c3ccccn3)cc2)c2ncn(C(C)C)c2n1 [CR8, (S)-Isomer]
[1]; Well no.=2343
  remaining activity at 1.25 µM: 103%
[2]; Well no.=2343
  remaining activity at 3.75 µM: 102%

## CC1(C)CCC(NC(=O)[C@@H](N)CCC(=O)O)CC1 [CR 2249]
[1]; Well no.=901
  remaining activity at 1.25 µM: 108%
[2]; Well no.=901
  remaining activity at 3.75 µM: 105%

## Cc1cc(C)c(NC(=O)C[C@H](CC(=O)O)c2cccc3ccccc23)c(C(=O)N2CCC3(CCCC3)CC2)c1 [CR 2945]
[1]; Well no.=1111
  remaining activity at 1.25 µM: 105%
[2]; Well no.=1111
  remaining activity at 3.75 µM: 98.1%

## CC[C@@H](N)CNc1ccnc(-c2cc(-c3cnn(C)c3)ccc2O)n1 [CRT0066101 dihydrochloride]
[1]; Well no.=6498
  remaining activity at 1.25 µM: 89.1%
[2]; Well no.=6498
  remaining activity at 3.75 µM: 90.1%

## C#Cc1cccc(Nc2ncnc3cc(OC)c(OCCCCCCC(=O)NO)cc23)c1 [CUDC-101]
[1]; Well no.=5097
  remaining activity at 1.25 µM: 104%
[2]; Well no.=5097
  remaining activity at 3.75 µM: 108%

## CN[C@@H](C)C(=O)N[C@H](C(=O)N1CCC[C@H]1C(=O)Nc1sc(-c2ncco2)nc1-c1ccccc1)C1CCCCC1 [CUDC-427]
[1]; Well no.=7062
  remaining activity at 1.25 µM: 99.8%
[2]; Well no.=7062
  remaining activity at 3.75 µM: 92.1%

## CS(=O)(=O)Nc1ccc(-c2coc3cc(OCc4cccc(C(=O)O)c4)ccc3c2=O)cc1 [CVT-10216]
[1]; Well no.=5513
  remaining activity at 1.25 µM: 105%
[2]; Well no.=5513
  remaining activity at 3.75 µM: 108%

## O=C(c1ccc2c(c1)OCCO2)N1CCCCC1 [CX 546]
[1]; Well no.=729
  remaining activity at 1.25 µM: 103%
[2]; Well no.=729
  remaining activity at 3.75 µM: 99.5%

## Cc1cnc(CNC(=O)c2c(=O)c3ccc(N4CCCN(C)CC4)nc3n3c2sc2ccccc23)cn1 [CX-5461]
[1]; Well no.=5340
  remaining activity at 1.25 µM: 99.1%
[2]; Well no.=5340
  remaining activity at 3.75 µM: 102%

## CN1CCC(S(=O)(=O)c2c(Cl)ccc(NC(=O)Nc3cccc(F)c3Cl)c2O)CC1 [CXCR2-IN-1]
[1]; Well no.=8705
  remaining activity at 1.25 µM: 100%
[2]; Well no.=8705
  remaining activity at 3.75 µM: 98.8%

## CCc1ccn2ccnc2c1N1CCCN([C@@H](CC(N)=O)C2CCN(C(=O)[C@H]3C[C@@H]4CC[C@H]3O4)CC2)CC1 [CXCR7 modulator 2]
[1]; Well no.=8557
  remaining activity at 1.25 µM: 112%
[2]; Well no.=8557
  remaining activity at 3.75 µM: 108%

## Cc1nc(N)sc1-c1ccnc(Nc2ccc(N3CCOCC3)cc2)n1 [CYC-116]
[1]; Well no.=2885
  remaining activity at 1.25 µM: 103%
[2]; Well no.=2885
  remaining activity at 3.75 µM: 101%

## O=C(c1cc(C2CC2)on1)N(C1CCCCC1)C1CCCCC1 [CYM-5541]
[1]; Well no.=6224
  remaining activity at 1.25 µM: 97.7%
[2]; Well no.=6224
  remaining activity at 3.75 µM: 94.5%

## Cc1ccc(-c2c(-c3nn(C)c4ncnc(N5CC[C@H](N6CCCCC6)C5)c34)cnn2C)cc1 [CYP3cide]
[1]; Well no.=5646
  remaining activity at 1.25 µM: 95.6%
[2]; Well no.=5646
  remaining activity at 3.75 µM: 91.1%

## N#CCNC(=O)c1ccc(-c2ccnc(Nc3ccc(N4CCOCC4)cc3)n2)cc1 [CYT11387]
[1]; Well no.=2753
  remaining activity at 1.25 µM: 98.6%
[2]; Well no.=2753
  remaining activity at 3.75 µM: 99.6%

## CO[C@H]1C(=O)[C@]2(C)[C@@H](OC)C[C@H]3OC[C@@]3(OC(C)=O)[C@H]2[C@H](OC(=O)c2ccccc2)[C@]2(O)C[C@H](OC(=O)[C@H](O)[C@@H](NC(=O)OC(C)(C)C)c3ccccc3)C(C)=C1C2(C)C [Cabazitaxel (Jevtana)]
[1]; Well no.=5263
  remaining activity at 1.25 µM: 95.3%
[2]; Well no.=5263
  remaining activity at 3.75 µM: 92.6%

## C=CCN1C[C@H](C(=O)N(CCCN(C)C)C(=O)NCC)C[C@@H]2c3cccc4[nH]cc(c34)C[C@H]21 [Cabergoline]
[1]; Well no.=1929
  remaining activity at 1.25 µM: 105%
[1]; Well no.=7179
  remaining activity at 1.25 µM: 94.5%
[2]; Well no.=1929
  remaining activity at 3.75 µM: 105%
[2]; Well no.=7179
  remaining activity at 3.75 µM: 96.6%

## CC(=O)OC[C@@]1(O)C[C@@]23CC[C@@H]4c5ccoc5CC[C@@]4(C)[C@@H]2CC[C@@H]1C3 [Cafestol acetate]
[1]; Well no.=3525
  remaining activity at 1.25 µM: 96.8%
[2]; Well no.=3525
  remaining activity at 3.75 µM: 103%

## C[C@@]12CCc3occc3[C@H]1CC[C@@]13C[C@@H](CC[C@H]12)[C@@](O)(CO)C3 [Cafestol]
[1]; Well no.=3523
  remaining activity at 1.25 µM: 102%
[2]; Well no.=3523
  remaining activity at 3.75 µM: 96.8%

## O=C(/C=C/c1ccc(O)c(O)c1)OCCc1ccccc1 [Caffeic acid phenethyl ester]
[1]; Well no.=140
  remaining activity at 1.25 µM: 103%
[2]; Well no.=140
  remaining activity at 3.75 µM: 104%

## O=C(O)/C=C/c1ccc(O)c(O)c1 [Caffeic acid]
[1]; Well no.=233
  remaining activity at 1.25 µM: 99%
[1]; Well no.=3957
  remaining activity at 1.25 µM: 97%
[1]; Well no.=7073
  remaining activity at 1.25 µM: 101%
[2]; Well no.=233
  remaining activity at 3.75 µM: 99.3%
[2]; Well no.=3125
  remaining activity at 3.75 µM: 104%
[2]; Well no.=3957
  remaining activity at 3.75 µM: 96.7%
[2]; Well no.=7073
  remaining activity at 3.75 µM: 95.2%

## Cn1c(=O)c2c(ncn2C)n(C)c1=O [Caffeine]
[1]; Well no.=329
  remaining activity at 1.25 µM: 95.2%
[1]; Well no.=1737
  remaining activity at 1.25 µM: 105%
[1]; Well no.=3344
  remaining activity at 1.25 µM: 89.5%
[2]; Well no.=329
  remaining activity at 3.75 µM: 95.9%
[2]; Well no.=1737
  remaining activity at 3.75 µM: 103%
[2]; Well no.=3344
  remaining activity at 3.75 µM: 91.8%

## C=C1CC[C@H](O)C/C1=C/C=C1\CCC[C@]2(C)[C@@H]([C@H](C)CCCC(C)(C)O)CC[C@@H]12 [Calcifediol]
[1]; Well no.=1821
  remaining activity at 1.25 µM: 90.8%
[2]; Well no.=1821
  remaining activity at 3.75 µM: 93.1%

## CNc1ccc2oc(C[C@H]3O[C@@]4(CC[C@H]3C)O[C@H]([C@H](C)C(=O)c3ccc[nH]3)[C@H](C)C[C@H]4C)nc2c1C(=O)O [Calcimycin]
[1]; Well no.=376
  remaining activity at 1.25 µM: 98.7%
[2]; Well no.=376
  remaining activity at 3.75 µM: 96.8%

## C=C1/C(=C\C=C2/CCC[C@]3(C)[C@@H]([C@H](C)/C=C/[C@@H](O)C4CC4)CC[C@@H]23)C[C@@H](O)C[C@@H]1O [Calcipotriene]
[1]; Well no.=1760
  remaining activity at 1.25 µM: 96.1%
[2]; Well no.=1760
  remaining activity at 3.75 µM: 96.3%

## C#CCOc1ccc2c(c1)c(-c1ccc(C(C)C)cc1)nc(=O)n2C(C)C [Calcium-Sensing Receptor Antagonists I]
[1]; Well no.=8007
  remaining activity at 1.25 µM: 101%
[2]; Well no.=8007
  remaining activity at 3.75 µM: 98.6%

## CCN[C@H]1CO[C@@H](O[C@H]2[C@H](O[C@H]3C#C/C=C\C#C[C@]4(O)CC(=O)C(NC(=O)OC)=C3/C4=C/CSSSC)O[C@H](C)[C@@H](NO[C@H]3C[C@H](O)[C@H](SC(=O)c4c(C)c(I)c(O[C@@H]5O[C@@H](C)[C@H](O)[C@@H](OC)[C@H]5O)c(OC)c4OC)[C@@H](C)O3)[C@@H]2O)C[C@@H]1OC [Calicheamicin]
[1]; Well no.=7060
  remaining activity at 1.25 µM: 94.4%
[2]; Well no.=7060
  remaining activity at 3.75 µM: 91.6%

## Cc1ccc(O)c(N=Nc2c(O)cc(S(=O)(=O)O)c3ccccc23)c1 [Calmagite]
[1]; Well no.=8168
  remaining activity at 1.25 µM: 96.3%
[2]; Well no.=8168
  remaining activity at 3.75 µM: 82.2%

## Clc1ccc(C(c2ccc(Cl)cc2)[n+]2ccn(CC(OCc3ccc(Cl)cc3Cl)c3ccc(Cl)cc3Cl)c2)cc1 (centres unmarked) [Calmidazolium chloride]
[1]; Well no.=174
  remaining activity at 1.25 µM: 101%
[2]; Well no.=174
  remaining activity at 3.75 µM: 94.5%

Source: PMC8286840, “Identifying SARS-CoV-2 antiviral compounds by screening for small molecule inhibitors of Nsp3 papain-like protease” (Biochemical Journal, 2021)
